The structures appear in SMILES notation. Counter-ions that a name gives are not always drawn.

One test concerns Spontaneously Hypertensive Rats. As to the kind of experiment: Hypotensive activity: mean arterial blood pressure in spontaneously hypertensive rats. The format is in vivo, rat (Okamoto strain, male). To be noted: SHR, gavage, 100 mg/kg or less, two doses 24 h apart, measured at 28 hours; average MABP of rats used 160±1.5 mm. How it is done:
The novel compounds of the invention are active hypotensive agents at nontoxic doses when administered to mammals. These compounds were tested for hypotensive activity by the method of P. S. Chan and D. W. Poorvin, Clinical and Experimental Hypertension, (6), 817-830 (1979). Male, 16 week old, spontaneously hypertensive rats of the Okamoto strain (Taconic Farms, Germantown, N.Y.) having an average means arterial blood pressure of 160±1.5 mm of mercury are used in the test. A rat is dosed by gavage with a test compound, suspended in 2% pre-boiled starch at a concentration of 50 mg/ml, at a dose of 100 mg/kg of body weight or less, with 0.9% sodium chloride loading at a dose of 25 ml/kg of body weight. A second identical dose of the test compound, without sodium chloride loading is given 24 hours later. At 28 hours after the initial dose the mean arterial blood pressure is measured by the method of Chan and Poorvin vide supra.
On to `N#Cc1cnn2c1N(C(=O)CN1CCN(C(c3ccccc3)c3ccc(Cl)cc3)CC1)CC=C2c1cccc(C(F)(F)F)c1` (stereo not shown) [Example 21, 4-[[4-[(4-Chlorophenyl)phenylmethyl]-1-piperazinyl]acetyl]-4,5-dihydro-7-[3-(trifluoromethyl)phenyl]pyrazolo[1,5-a]pyrimidine-3-carbonitrile], for which the “MABP/mmHg (mean arterial blood pressure)” value was determined as 134 mmHg.

The next test has as its system mice (hypoxic environment). As to the kind of experiment: Hypoxic survival test. It is filed as in vivo, mouse (Royal Hart). To be noted: 100 mg/kg, intraperitoneal, 10% oxygen, 5 minutes. How it is done: The hypoxic survival test is a useful in vivo test for measuring the effectiveness of central nervous system-acting drugs in enhancing survival in an hypoxic environment relative to the known parasympathomimetic agent physostigmine.
Drugs are tested by intraperitoneal injection of groups of mice 30 minutes prior to placing them in an hypoxic environment and measuring survival. The rationale of this test is that drugs which enhance survival under hypoxic conditions without concomitant depression or sedative side effects, do so by enhancing brain metabolism, i.e., by improving energy supply relative to demand and so preserving normal brain function under conditions of reduced energy metabolism. Considering the dependence of the brain on a constant supply of energy, drugs which have this property may have many far-reaching therapeutic indications, including aiding recovery from stroke and closed head injury and reducing the deleterious effects of age-related central nervous system deficits.
In the hypoxic survival test, groups of 20 Royal Hart mice (6 weeks of age) were injected intraperitoneally with a test compound in saline at various doses ranging from 1 to 200 mg/kg, 30 minutes prior to placing them in an hypoxic mixture (10% oxygen, 90% […]) and measuring survival after 5 minutes.
A control group of 20 mice was injected intraperitoneally with saline (0.01 ml/g of body weight) and processed as described above.
Another group of 20 mice was injected intraperitoneally with 0.125 mg/kg of physostigmine in saline and processed as described above.
As to `Cl.Cl.N#Cc1cnn2c1N(C(=O)CN1CCN(CCc3ccccc3)CC1)CC=C2c1cccc(C(F)(F)F)c1` [Example 132, 4,5-Dihydro-4-[[4-(2-phenylethyl)-1-piperazinyl)acetyl]-7-[3-(trifluoromethyl)phenyl]pyrazolo[1,5-a]pyrimidine-3-carbonitrile, dihydrochloride], the “% Survivors” value is reported as 60%.
Same read-out and setting: the same measure for `COc1ccc(C(=O)N2CCN(CC(=O)N3CC=C(c4cccc(C(F)(F)F)c4)n4ncc(C#N)c43)CC2)cc1.Cl` [Example 163, 4,5-Dihydro-4-[[4-(4-methoxybenzoyl)-1-piperazinyl]acetyl]-7-[3-(trifluoromethyl)phenyl]pyrazolo[1,5-a]pyrimidine-3-carbonitrile, monohydrochloride]: 25%.

The test is the same for the next values; noted with them: 100 mg/kg, intraperitoneal, 10% oxygen, 5 minutes; listed as 4,5-Dihydro-4-[[4-[(3-trifluoromethyl-phenyl)methyl]-1-piperazinyl]acetyl]-7-[3-, dihydrochloride.
`N#Cc1cnn2c1N(C(=O)CN1CCN(Cc3cccc(C(F)(F)F)c3)CC1)CC=C2c1cccc(C(F)(F)F)c1` [Example 145, 4,5-Dihydro-7-[3-(trifluoromethyl)phenyl-4-[[4-[[3-(trifluoromethyl)phenyl]methyl]-1-piperazinyl]acetyl]pyrazolo[1,5-a]pyrimidine-3-carbonitrile, dihydrochloride]: the “% Survivors” value came to 85%.

The test is the same for the next values; noted with them: 10% oxygen, after 5 minutes; physostigmine group 0.125 mg/kg intraperitoneal.
For `CNC(=O)Oc1ccc2c(c1)[C@]1(C)CCN(C)[C@@H]1N2C` [physostigimine, reference compound], the “mice surviving (physostigmine-treated)” value is reported as 60-80%.

The test is the same for the next values; noted with them: Mus musculus, ip, 5 min, 10 mg/kg, intraperitoneal, 10% oxygen, 5 minutes; read-out: % Survivors.
Take `COc1cccc(CN2CCN(CC(=O)N3CC=C(c4ccccc4)n4ncc(C#N)c43)CC2)c1` [Example 150, 4,5-Dihydro-4-[[4-[(3-methoxyphenyl)methyl]-1-piperazinyl]acetyl]-7-phenylpyrazolo[1,5-a]pyrimidine-3-carbonitrile, dihydrochloride]: the responders at 10 mg/kg worked out at 45%.
The same measure, in the same setting: under `N#Cc1cnn2c1N(C(=O)CN1CCN(Cc3ccccc3C(F)(F)F)CC1)CC=C2c1cccc(C(F)(F)F)c1` [Example 152, 4,5-Dihydro-7-[3-(trifluoromethyl)phenyl]-4-[[4-[[2-(trifluoromethyl)phenyl]methyl]-1-piperazinyl]acetyl]pyrazolo[1,5-]pyrimidine-3-carbonitrile dihydrochloride] stands 30%; under `O=C(CN1CCN(Cc2ccccc2)CC1)N1CC=C(c2cccc(C(F)(F)F)c2)n2ncc(Br)c21` [Example 154, 3-Bromo-4,5-dihydro-4-[[4-(phenylmethyl)-1-piperazinyl]acetyl]-7-[3-(trifluoromethyl)phenyl]pyrazolo[1,5-a]pyrimidine, dihydrochloride], 20%.

Staying with this test, now noted: Mus musculus, ip, 5 min, 100 mg/kg, intraperitoneal, 10% oxygen, 5 minutes; read-out: % Survivors.
`COc1cccc(CN2CCN(CC(=O)N3CC(C)=C(c4cccc(Cl)c4)n4ncc(C#N)c43)CC2)c1` [Example 143, 7-(3-Chlorophenyl)-4,5-dihydro-4-[[4-[(3-methoxyphenyl)methyl]-1-piperazinyl]acetyl]-6-methylpyrazolo[1,5-a]pyrimidine-3-carbonitrile, dihydrochloride]: the responders at 100 mg/kg is 65%.
As to `COc1cccc(CN2CCN(CC(=O)N3CC=C(c4ccccc4)n4ncc(C#N)c43)CC2)c1` [Example 148, 4,5-Dihydro-4-[[4-[(3-methoxyphenyl)methyl]-1-piperazinyl]acetyl]-7-phenylpyrazolo[1,5-a]pyrimidine-3-carbonitrile], the responders at 100 mg/kg came out at 55%.
Same read-out and setting: under `Cc1cccc(C2=CCN(C(=O)CN3CCN(Cc4ccccc4)CC3)c3c(C#N)cnn32)c1` [Example 149, 4,5-Dihydro-7-(3-methylphenyl)-4-[[4-(phenylmethyl)-1-piperazinyl]acetyl]pyrazolo[1,5-a]pyrimidine-3-carbonitrile, hydrochloride] stands 55%; under `N#Cc1cnn2c1N(C(=O)CN1CCN(Cc3ccccc3C(F)(F)F)CC1)CC=C2c1cccc(C(F)(F)F)c1` [Example 151, 4,5-Dihydro-7-[3-(trifluoromethyl)phenyl]-4-[[4-[[2-(trifluoromethyl)phenyl]methyl]-1-piperazinyl]acetyl]pyrazolo[1,5-a]pyrimidine-3-carbonitrile], 20%; under `N#Cc1cnn2c1N(C(=O)CN1CCN(c3ccc(F)cc3)CC1)CC=C2c1cccc(C(F)(F)F)c1` [Example 153, 4-[[4-(4-Fluorophenyl)-1-piperazinyl]acetyl]4,5-dihydro-7-[3-(trifluoromethyl)phenyl]pyrazolo[1,5-a]pyrimidine-3-carbonitrile, monohydrochloride], 35%.
Take `O=C(CN1CCN(Cc2ccccc2)CC1)N1CC=C(c2cccc(C(F)(F)F)c2)n2ncc(Cl)c21` [Example 155, 3-Chloro-4,5-dihydro-4-[[4-(phenylmethyl-1-piperazinyl]acetyl]-7-[3-trifluoromethyl)phenylpyrazolo[1,5-a]pyrimidine, dihydrochloride]: the responders at 100 mg/kg came to 25%.
Still for that read-out and setting: under `N#Cc1cnn2c1N(C(=O)CN1CCN(Cc3ccccc3F)CC1)CC=C2c1cccc(C(F)(F)F)c1` [Example 156, 4-[[4-[(2-Fluorophenyl)methyl]-1-piperazinyl]acetyl]4,5-dihydro-7-[3-(trifluoromethyl)phenyl]pyrazolo[1,5-a]pyrimidine-3-carbonitrile] stands 55%; under `CC1=C(c2cccc(Cl)c2)n2ncc(C#N)c2N(C(=O)CN2CCN(Cc3ccccc3F)CC2)C1` [Example 157, 7-(3-Chlorophenyl)-4-[[4-[(2-fluorophenyl)methyl]-1-piperazinyl]acetyl]-4,5-dihydro-6-methylpyrazolo[1,5-a]pyrimidine-3-carbonitrile, dihydrochloride], 45%.
On the same count and under the same terms, under `N#Cc1cnn2c1N(C(=O)CN1CCN(C(=O)OCc3ccccc3)CC1)CC=C2c1cccc(C(F)(F)F)c1` [Example 158, 4-[2-[3-Cyano-7-[3-(trifluoromethyl)phenyl]pyrazolo[1,5-a]pyrimidin-4(5H)-yl]-2-oxoethyl]-1-piperazinecarboxylic acid, phenylmethyl ester] stands 55%; under `CC1=C(c2cccc(C(F)(F)F)c2)n2ncc(C#N)c2N(C(=O)CN2CCN(Cc3cccc(C(F)(F)F)c3)CC2)C1` [Example 160, 4,5-Dihydro-6-methyl-7-[3-(trifluoromethyl)phenyl]-4-[[4-[[3-(trifluoromethyl)phenyl]methyl]-1-piperazinyl]acetyl]pyrazolo[1,5-a]pyrimidine-3-dihydrochloride], 40%.
For the molecule `CCC1=C(c2cccc(C(F)(F)F)c2)n2ncc(C#N)c2N(C(=O)CN2CCN(Cc3ccccc3)CC2)C1` [Example 161, 4,5-Dihydro-6-ethyl-4-[[4-(phenylmethyl)-1-piperazinyl]acetyl]-7-[3-(trifluoromethyl)phenyl]pyrazolo[1,5-a]pyrimidine-3-carbonitrile], the responders at 100 mg/kg was 25%.
On the same count and under the same terms, the same measure for `COc1ccc(C(=O)N2CCN(CC(=O)N3CC=C(c4cccc(C(F)(F)F)c4)n4ncc(C#N)c43)CC2)cc1` [Example 162, 4,5-Dihydro-4-[[4-(4-methoxybenzoyl)-1-piperazinyl]acetyl]-7-[3-(trifluoromethyl)phenyl]pyrazolo[1,5-a]pyrimidine-3-carbonitrile]: 45%.

The same test, now with this note: Mus musculus, ip, 5 min, 200 mg/kg, intraperitoneal, 10% oxygen, 5 minutes; read-out: % Survivors.
For `CCC1=C(c2cccc(C(F)(F)F)c2)n2ncc(C#N)c2N(C(=O)CN2CCN(Cc3ccccc3)CC2)C1` [Example 140, 4,5-Dihydro-6-ethyl-4[[4-(phenylmethyl)-1-piperazinyl]acetyl]7-[3-(trifluoromethyl)phenyl]pyrazolo[1,5-a]pyrimidine-3-carbonitrile], the responders at 200 mg/kg amounted to 42%.
Same read-out and setting: under `CC1=C(c2ccc(Cl)cc2)n2ncc(C#N)c2N(C(=O)CN2CCN(Cc3cccc(C(F)(F)F)c3)CC2)C1` [Example 142, 7-(4-Chlorophenyl)-4,5-dihydro-6-methyl-4-[[4-[[3-(trifluoromethyl)phenyl]methyl-1-piperazinyl]acetyl]pyrazolo[1,5-a]pyrimidine-3-carbonitrile, dihydrochloride] stands 37.5%.

Source of the values: US4963553A, “4-[(substituted) alkylcarbonyl]-4,5-dihydro- and -4,5,6,7-tetrahydro-7-[(substituted)phenyl]pyrazolo[1,5-a]pyrimidines” (American Cyanamid Co., priority 1988, dated 1990).
